# According to PubChem BioAssay (NCI):
#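 Briefly, cells in 96-well plates were exposed to five compound concentrations for 48 h, and endpoints were estimated by linear interpolation. The concentration for 50% growth inhibition is given as GI50. At the TGI there is no net growth.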
# Tests used:
# Assay in all cases: NCI anticancer screen, dose series, 48 h
# TK-10 renal = test system: TK-10 renal
# NCI-H226 lung = test system: NCI-H226 lung
# NCI-H522 lung = test system: NCI-H522 lung
# NCI-H23 lung = test system: NCI-H23 lung
# SW-620 colon = test system: SW-620 colon
# SF-539 CNS = test system: SF-539 CNS
# UACC-257 melanoma = test system: UACC-257 melanoma
# SN12C renal = test system: SN12C renal
# HL-60(TB) leukemia = test system: HL-60(TB) leukemia
# ACHN renal = test system: ACHN renal
# OVCAR-4 ovarian = test system: OVCAR-4 ovarian
# KM12 colon = test system: KM12 colon
# SF-295 CNS = test system: SF-295 CNS
# OVCAR-5 ovarian = test system: OVCAR-5 ovarian
# SK-MEL-28 melanoma = test system: SK-MEL-28 melanoma
# HS 578T breast = test system: HS 578T breast
# NCI/ADR-RES ovarian = test system: NCI/ADR-RES ovarian
# EKVX NSCLC = test system: EKVX NSCLC
# MDA-MB-435 = test system: MDA-MB-435
# UACC-62 melanoma = test system: UACC-62 melanoma
# MDA-MB-231 breast = test system: MDA-MB-231 breast
# BT-549 breast = test system: BT-549 breast
# SK-MEL-2 melanoma = test system: SK-MEL-2 melanoma
# HOP-62 NSCLC = test system: HOP-62 NSCLC
# SK-MEL-5 melanoma = test system: SK-MEL-5 melanoma
# A549 NSCLC = test system: A549 NSCLC
# CCRF-CEM leukemia = test system: CCRF-CEM leukemia
# HT29 colon = test system: HT29 colon
# T-47D breast = test system: T-47D breast
# U251 CNS = test system: U251 CNS
# A498 renal = test system: A498 renal
# IGROV1 ovarian = test system: IGROV1 ovarian
# MALME-3M melanoma = test system: MALME-3M melanoma
# OVCAR-3 ovarian = test system: OVCAR-3 ovarian
# 786-0 renal = test system: 786-0 renal
# LOX IMVI melanoma = test system: LOX IMVI melanoma
# CAKI-1 renal = test system: CAKI-1 renal
# HCT-116 colon = test system: HCT-116 colon
# SF-268 CNS = test system: SF-268 CNS
# HOP-92 NSCLC = test system: HOP-92 NSCLC
# MCF7 breast = test system: MCF7 breast
# SK-OV-3 ovarian = test system: SK-OV-3 ovarian
# OVCAR-8 ovarian = test system: OVCAR-8 ovarian
# DU-145 prostate = test system: DU-145 prostate
# PC-3 prostate = test system: PC-3 prostate
# COLO 205 colon = test system: COLO 205 colon
# UO-31 renal = test system: UO-31 renal
# RXF 393 renal = test system: RXF 393 renal
# M14 melanoma = test system: M14 melanoma
# K-562 leukemia = test system: K-562 leukemia
# NCI-H460 lung = test system: NCI-H460 lung
# HCC-2998 colon = test system: HCC-2998 colon
# SNB-19 CNS = test system: SNB-19 CNS
# SR leukemia = test system: SR leukemia
# HCT-15 colon = test system: HCT-15 colon
# SNB-75 CNS = test system: SNB-75 CNS
# RPMI-8226 leukemia = test system: RPMI-8226 leukemia
smiles,measurement,setting,value
O=C1/C(=C/c2cccc(O)c2)COc2ccccc21,TGI,TK-10 renal,31.2 µM
same,TGI,NCI-H226 lung,32.4 µM
same,TGI,NCI-H522 lung,5.82 µM
same,TGI,NCI-H23 lung,18.1 µM
same,TGI,SW-620 colon,6.79 µM
same,TGI,SF-539 CNS,25.8 µM
same,TGI,UACC-257 melanoma,7.29 µM
same,TGI,SN12C renal,19.8 µM
same,TGI,HL-60(TB) leukemia,63.8 µM
same,TGI,ACHN renal,3.89 µM
same,TGI,OVCAR-4 ovarian,21.8 µM
same,TGI,KM12 colon,7.09 µM
same,TGI,SF-295 CNS,33.4 µM
same,TGI,OVCAR-5 ovarian,26.6 µM
same,TGI,SK-MEL-28 melanoma,11.9 µM
same,TGI,HS 578T breast,43.6 µM
same,TGI,NCI/ADR-RES ovarian,5.25 µM
same,TGI,EKVX NSCLC,34 µM
same,TGI,MDA-MB-435,17.2 µM
same,TGI,UACC-62 melanoma,9.81 µM
same,TGI,MDA-MB-231 breast,21.4 µM
same,TGI,BT-549 breast,49.5 µM
same,TGI,SK-MEL-2 melanoma,34.6 µM
same,TGI,HOP-62 NSCLC,28.4 µM
same,TGI,SK-MEL-5 melanoma,22.8 µM
same,TGI,A549 NSCLC,47.2 µM
same,TGI,CCRF-CEM leukemia,> 100 µM
same,TGI,HT29 colon,11.4 µM
same,TGI,T-47D breast,21.1 µM
same,TGI,U251 CNS,3.8 µM
same,TGI,A498 renal,34.7 µM
same,TGI,IGROV1 ovarian,23.1 µM
same,TGI,MALME-3M melanoma,26.3 µM
same,TGI,OVCAR-3 ovarian,4.85 µM
same,TGI,786-0 renal,14.5 µM
same,TGI,LOX IMVI melanoma,3.92 µM
same,TGI,CAKI-1 renal,11.9 µM
same,TGI,HCT-116 colon,3.32 µM
same,TGI,SF-268 CNS,40.8 µM
same,TGI,HOP-92 NSCLC,> 55.6 µM
same,TGI,MCF7 breast,> 43.6 µM
same,TGI,SK-OV-3 ovarian,46.3 µM
same,TGI,OVCAR-8 ovarian,24.4 µM
same,TGI,DU-145 prostate,28.1 µM
same,TGI,PC-3 prostate,> 53.8 µM
same,TGI,COLO 205 colon,31.6 µM
same,TGI,UO-31 renal,24.8 µM
same,TGI,RXF 393 renal,29 µM
same,TGI,M14 melanoma,13 µM
same,TGI,K-562 leukemia,> 33.2 µM
same,TGI,NCI-H460 lung,54.6 µM
same,TGI,HCC-2998 colon,1.48 µM
same,TGI,SNB-19 CNS,21.8 µM
same,TGI,SR leukemia,> 100 µM
same,TGI,HCT-15 colon,3.26 µM
same,TGI,SNB-75 CNS,34.5 µM
COc1cc(OC)cc(Oc2nc3cc(N)cc(N)c3nc2-c2ccccc2)c1,TGI,TK-10 renal,8.44 µM
same,GI50,NCI-H226 lung,6.55 µM
same,TGI,NCI-H226 lung,43 µM
same,GI50,NCI-H522 lung,0.891 µM
same,TGI,NCI-H522 lung,4.31 µM
same,GI50,NCI-H23 lung,1.69 µM
same,TGI,NCI-H23 lung,12.7 µM
same,GI50,SW-620 colon,2.26 µM
same,TGI,SW-620 colon,10.2 µM
same,GI50,UACC-257 melanoma,2.19 µM
same,TGI,UACC-257 melanoma,12.3 µM
same,TGI,SN12C renal,22.3 µM
same,GI50,HL-60(TB) leukemia,3.07 µM
same,TGI,HL-60(TB) leukemia,25.9 µM
same,TGI,ACHN renal,17.9 µM
same,GI50,OVCAR-4 ovarian,2.89 µM
same,TGI,OVCAR-4 ovarian,16.2 µM
same,GI50,KM12 colon,1.03 µM
same,TGI,KM12 colon,6.07 µM
same,GI50,SF-295 CNS,2.21 µM
same,TGI,SF-295 CNS,8.49 µM
same,GI50,OVCAR-5 ovarian,3.24 µM
same,TGI,OVCAR-5 ovarian,16.4 µM
same,GI50,SK-MEL-28 melanoma,3.18 µM
same,TGI,SK-MEL-28 melanoma,15.5 µM
same,GI50,HS 578T breast,1.32 µM
same,TGI,HS 578T breast,4.19 µM
same,GI50,NCI/ADR-RES ovarian,1.13 µM
same,TGI,NCI/ADR-RES ovarian,3.85 µM
same,GI50,EKVX NSCLC,3.77 µM
same,TGI,EKVX NSCLC,19.3 µM
same,GI50,MDA-MB-435,0.392 µM
same,TGI,MDA-MB-435,1.83 µM
same,GI50,UACC-62 melanoma,4.04 µM
same,TGI,UACC-62 melanoma,18 µM
same,GI50,MDA-MB-231 breast,4.02 µM
same,TGI,MDA-MB-231 breast,21.8 µM
same,GI50,BT-549 breast,1.49 µM
same,TGI,BT-549 breast,6.92 µM
same,GI50,SK-MEL-2 melanoma,2.29 µM
same,TGI,SK-MEL-2 melanoma,10.2 µM
same,GI50,HOP-62 NSCLC,2.14 µM
same,TGI,HOP-62 NSCLC,12.8 µM
same,GI50,SK-MEL-5 melanoma,1.89 µM
same,TGI,SK-MEL-5 melanoma,6.47 µM
same,GI50,A549 NSCLC,2.88 µM
same,TGI,A549 NSCLC,13.2 µM
same,TGI,RPMI-8226 leukemia,8.42 µM
same,GI50,CCRF-CEM leukemia,1.97 µM
same,TGI,CCRF-CEM leukemia,8.67 µM
same,GI50,HT29 colon,4.37 µM
same,TGI,HT29 colon,17.8 µM
same,GI50,T-47D breast,2.37 µM
same,TGI,T-47D breast,9.13 µM
same,GI50,U251 CNS,2.6 µM
same,TGI,U251 CNS,10.8 µM
same,TGI,A498 renal,14.4 µM
same,GI50,IGROV1 ovarian,2.62 µM
same,TGI,IGROV1 ovarian,12.3 µM
same,GI50,MALME-3M melanoma,0.426 µM
same,TGI,MALME-3M melanoma,5.09 µM
same,GI50,OVCAR-3 ovarian,2.22 µM
same,TGI,OVCAR-3 ovarian,8.65 µM
same,TGI,786-0 renal,11.4 µM
same,GI50,LOX IMVI melanoma,2.95 µM
same,TGI,LOX IMVI melanoma,13 µM
same,TGI,CAKI-1 renal,24.1 µM
same,GI50,HCT-116 colon,2.36 µM
same,TGI,HCT-116 colon,10.1 µM
same,GI50,SF-268 CNS,1.75 µM
same,TGI,SF-268 CNS,7.13 µM
same,GI50,HOP-92 NSCLC,1.36 µM
same,TGI,HOP-92 NSCLC,8.9 µM
same,GI50,MCF7 breast,1.69 µM
same,TGI,MCF7 breast,4.53 µM
same,GI50,SK-OV-3 ovarian,3.49 µM
same,TGI,SK-OV-3 ovarian,16.3 µM
same,GI50,OVCAR-8 ovarian,2.9 µM
same,TGI,OVCAR-8 ovarian,16.3 µM
same,TGI,DU-145 prostate,25.1 µM
same,TGI,PC-3 prostate,17.4 µM
same,GI50,COLO 205 colon,10.6 µM
same,TGI,COLO 205 colon,22.4 µM
same,TGI,UO-31 renal,15.3 µM
same,TGI,RXF 393 renal,4.41 µM
same,GI50,M14 melanoma,1.6 µM
same,TGI,M14 melanoma,7.76 µM
same,GI50,K-562 leukemia,3.77 µM
same,TGI,K-562 leukemia,32.4 µM
same,GI50,NCI-H460 lung,2.92 µM
same,TGI,NCI-H460 lung,12.5 µM
same,GI50,HCC-2998 colon,2.52 µM
same,TGI,HCC-2998 colon,13.7 µM
same,GI50,SNB-19 CNS,2.49 µM
same,TGI,SNB-19 CNS,12.5 µM
same,GI50,SR leukemia,1.85 µM
same,TGI,SR leukemia,28.9 µM
same,GI50,HCT-15 colon,2.04 µM
same,TGI,HCT-15 colon,12.4 µM
same,GI50,SNB-75 CNS,0.127 µM
same,TGI,SNB-75 CNS,2.67 µM
